These results are taken from ChEMBL document CHEMBL1158822, “Anthrabenzoxocinones from Streptomyces sp. as liver X receptor ligands and antibacterial agents” (J Nat Prod, 2005).

For assay [1], the system named is Staphylococcus aureus. Put plainly: Inhibition of type II fatty acid synthesis in Staphylococcus aureus using n-octanoyl-CoA and [14C]malonyl CoA substrate.
In assay [2] the test system is Staphylococcus aureus. Put plainly: Antibacterial activity against methicillin-sensitive Staphylococcus aureus MB2685. The format is functional.
Assay [3] deals with Staphylococcus aureus. Put plainly: Antibacterial activity against methicillin-resistant Staphylococcus aureus COL MB5393. It is filed as functional.
A further assay relates to Streptococcus pneumoniae. Put plainly: Antibacterial activity against Streptococcus pneumoniae MB212. It is filed as functional.
The test system of the next assay is Enterococcus faecalis. Put plainly: Antibacterial activity against vancomycin-sensitive Enterococcus faecalis CL8516. It is filed as functional.
Another assay deals with Enterococcus faecium. Put plainly: Antibacterial activity against vancomycin-resistant Enterococcus faecium CL5791. The format is functional.
Another assay concerns Escherichia coli. Put plainly: Antibacterial activity against lpxC mutant gene expressing Escherichia coli MB4902. It is filed as functional.
For assay [4], the system named is Staphylococcus aureus. Put plainly: Inhibition of phospholipid biosynthesis in Staphylococcus aureus.
In assay [5] the test system is Staphylococcus aureus. Put plainly: Inhibition of protein biosynthesis in Staphylococcus aureus.
The test system of assay [6] is Staphylococcus aureus. Put plainly: Inhibition of RNA biosynthesis in Staphylococcus aureus.
Assay [7] concerns Staphylococcus aureus. Put plainly: Inhibition of DNA biosynthesis in Staphylococcus aureus.
Assay [8] addresses T1, Oxysterols receptor LXR-alpha (Homo sapiens, UniProt Q13133).
T1 sequence (Q13133 whole entry): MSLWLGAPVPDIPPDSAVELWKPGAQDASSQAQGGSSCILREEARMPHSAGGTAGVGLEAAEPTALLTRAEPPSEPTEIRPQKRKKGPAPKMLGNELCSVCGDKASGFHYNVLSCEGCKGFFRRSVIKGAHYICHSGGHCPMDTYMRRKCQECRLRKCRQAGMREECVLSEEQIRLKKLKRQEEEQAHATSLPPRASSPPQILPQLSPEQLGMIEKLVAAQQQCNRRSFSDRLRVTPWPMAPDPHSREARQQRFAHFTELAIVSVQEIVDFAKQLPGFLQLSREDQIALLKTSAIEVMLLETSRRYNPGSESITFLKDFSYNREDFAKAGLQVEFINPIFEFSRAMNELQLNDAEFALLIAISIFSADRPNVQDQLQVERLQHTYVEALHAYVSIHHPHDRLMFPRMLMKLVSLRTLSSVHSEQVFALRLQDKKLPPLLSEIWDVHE
Put plainly: Displacement of [3H2]F3-methyl AA from LXRalpha by scintillation proximity assay. (In general: In a scintillation proximity assay essentially only radioactivity close to the scintillant gives light.)

Assay [9] deals with T2, Oxysterols receptor LXR-beta (Homo sapiens, UniProt P55055).
T2 sequence (P55055 whole entry): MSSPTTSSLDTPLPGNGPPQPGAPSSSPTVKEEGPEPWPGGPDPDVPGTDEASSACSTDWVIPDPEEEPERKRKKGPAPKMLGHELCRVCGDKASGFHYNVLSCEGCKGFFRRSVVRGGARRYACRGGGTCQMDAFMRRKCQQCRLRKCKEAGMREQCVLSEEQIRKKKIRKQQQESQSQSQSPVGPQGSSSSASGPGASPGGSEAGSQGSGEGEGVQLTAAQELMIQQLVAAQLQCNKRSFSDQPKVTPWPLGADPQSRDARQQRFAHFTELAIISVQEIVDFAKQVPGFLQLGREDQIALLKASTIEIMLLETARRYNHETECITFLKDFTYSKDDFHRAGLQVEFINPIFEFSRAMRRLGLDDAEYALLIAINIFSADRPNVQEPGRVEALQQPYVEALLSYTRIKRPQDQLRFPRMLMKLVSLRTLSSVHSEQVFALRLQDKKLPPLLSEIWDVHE
Put plainly: Displacement of [3H2]F3-methyl AA from LXRbeta by scintillation proximity assay.

In brackets after ≈: the same amount, converted by molar mass. A value given as a limit tells only on which side of the number the result lay.

What is called IC50 is the concentration at which inhibition is half-maximal. Lower therefore signals inhibition by little substance. What is called MIC is the lowest concentration that inhibits growth of the organism. A higher MIC goes with weaker potency. `Cc1cc(O)cc2c1[C@@H]1O[C@@](C)(Cc3cc4c(c(O)c31)C(=O)c1c(O)cc(O)cc1C4(C)C)O2` returned an IC50 in the assay with Staphylococcus aureus [1] of 245 µg/mL (≈ 532 µM). The MIC stood at 1 µg/mL (≈ 2.17 µM) against Staphylococcus aureus [2]; 0.5 µg/mL (≈ 1.09 µM) with Staphylococcus aureus [3]; 1 µg/mL (≈ 2.17 µM) in the assay with Streptococcus pneumoniae; 1 µg/mL (≈ 2.17 µM) against Enterococcus faecalis; 0.5 µg/mL (≈ 1.09 µM) with Enterococcus faecium; 1 µg/mL (≈ 2.17 µM) against Escherichia coli.

Turning to `Cc1cc(O)cc2c1[C@H]1O[C@](C)(Cc3cc4c(c(O)c31)C(=O)c1c(O)cc(O)cc1C4(C)C)O2`, the IC50 turned out to be 288 µg/mL (≈ 625 µM) in the assay on Staphylococcus aureus [1]; 1 µg/mL (≈ 2.17 µM) with Staphylococcus aureus [4]; 1 µg/mL (≈ 2.17 µM) with Staphylococcus aureus [5]; 1 µg/mL (≈ 2.17 µM) with Staphylococcus aureus [6]; 1 µg/mL (≈ 2.17 µM) in the assay with Staphylococcus aureus [7]. For the same compound, the MIC amounted to 2 µg/mL (≈ 4.34 µM) against Staphylococcus aureus [2]; 2 µg/mL (≈ 4.34 µM) with Staphylococcus aureus [3]; 1 µg/mL (≈ 2.17 µM) with Streptococcus pneumoniae; 0.5 µg/mL (≈ 1.09 µM) against Enterococcus faecalis; 2 µg/mL (≈ 4.34 µM) against Enterococcus faecium; 2 µg/mL (≈ 4.34 µM) against Escherichia coli.

On to `COc1cc(C)c2c(c1)O[C@@]1(C)Cc3cc4c(c(O)c3[C@@H]2O1)C(=O)c1c(O)c(Cl)c(O)c(Cl)c1C4(C)C`, for which the IC50 in assay [8] was 10 µM; in [9], more than 15 µM; with Staphylococcus aureus [1], 11.4 µg/mL (≈ 21 µM); in the assay with Staphylococcus aureus [4], 0.21 µg/mL (≈ 0.386 µM); in the assay with Staphylococcus aureus [5], 0.21 µg/mL (≈ 0.386 µM); in the assay on Staphylococcus aureus [6] it was 0.21 µg/mL (≈ 0.386 µM). Half-maximal inhibition in the assay with Staphylococcus aureus [7] (IC50) was put at 0.21 µg/mL (≈ 0.386 µM). For the same compound, the MIC in the assay with Staphylococcus aureus [2] is 0.5 µg/mL (≈ 0.92 µM); in the assay on Staphylococcus aureus [3], 1 µg/mL (≈ 1.84 µM); in the assay with Streptococcus pneumoniae it was 1 µg/mL (≈ 1.84 µM); against Enterococcus faecalis, 1 µg/mL (≈ 1.84 µM); with Enterococcus faecium, 2 µg/mL (≈ 3.68 µM); in the assay with Escherichia coli, 0.5 µg/mL (≈ 0.92 µM).

For `CO[C@H]1/C=C/O[C@@]2(C)Oc3c(C)c(O)c4c(O)c(c(/C=N/N5CCN(C)CC5)c(O)c4c3C2=O)NC(=O)/C(C)=C\C=C\[C@H](C)[C@H](O)[C@@H](C)[C@@H](O)[C@@H](C)[C@H](OC(C)=O)[C@@H]1C` [RIFAMPIN], in the assay with Staphylococcus aureus [1], the IC50 was more than 250 µg/mL. Moreover, the MIC was found to be 0.002 µg/mL (≈ 0.00243 µM) against Staphylococcus aureus [2]; 0.002 µg/mL (≈ 0.00243 µM) in the assay with Staphylococcus aureus [3]; 0.004 µg/mL (≈ 0.00486 µM) with Streptococcus pneumoniae; 0.008 µg/mL (≈ 0.00972 µM) against Enterococcus faecalis; 0.04 µg/mL (≈ 0.0486 µM) in the assay on Enterococcus faecium; 0.02 µg/mL (≈ 0.0243 µM) with Escherichia coli.

In turn, `O=C(N[C@H](CO)[C@H](O)c1ccc([N+](=O)[O-])cc1)C(Cl)Cl` [CHLORAMPHENICOL] came in with an IC50 in the assay on Staphylococcus aureus [1] of more than 250 µg/mL. In addition, the MIC was 6.25 µg/mL (≈ 19.3 µM) with Staphylococcus aureus [2]; 6.25 µg/mL (≈ 19.3 µM) in the assay on Staphylococcus aureus [3]; 1.56 µg/mL (≈ 4.83 µM) against Streptococcus pneumoniae; 1.56 µg/mL (≈ 4.83 µM) against Enterococcus faecalis; 6.25 µg/mL (≈ 19.3 µM) against Enterococcus faecium; 1.56 µg/mL (≈ 4.83 µM) against Escherichia coli.
